# From US20190231822A1, “METHODS OF REDUCING CHRONIC GRAFT-VERSUS-HOST DISEASE” (Regents of the University of Minnesota, priority 2016, published 2019)
# System: cGVHD
# Experiment: cGVHD prevention or reversal by an iNKT agonist
# Assay type: in vivo
# Details: intravascular administration
compound,measurement,value
CCCCCCCCCCCCCCCCCCCCCCCCCC(=O)N[C@@H](CO[C@H]1O[C@H](CO)[C@H](O)[C@H](O)[C@H]1O)[C@H](O)[C@H](O)CCCCCCCCCCCCCC [alpha-galactosylceramide],prevention or reversal of cGVHD,able to prevent or reverse cGVHD
